Some results are limits rather than exact numbers.

These results are taken from ChEMBL document CHEMBL4052750, “Structure-based optimization and synthesis of antiviral drug Arbidol analogues with significantly improved affinity to influenza hemagglutinin” (Bioorg Med Chem Lett, 2017).

Assay [1] can be described thus: Binding affinity to Influenza A virus (A/Hong Kong/1/1968(H3N2)) […] by biolayer interferometry analysis.
A short description of assay [2]: Binding affinity to Influenza A virus (A/Puerto Rico/8/1934(H1N1)) PR8 hemagglutinin-1 by biolayer interferometry analysis. In general terms: In BLI a coated tip is dipped into the sample, and binding shifts an interference pattern.
The test system of assay [3] is Influenza A virus (A/Hong Kong/1/1968(H3N2)). As to the kind of experiment: Binding affinity to Influenza A virus (A/Hong Kong/1/1968(H3N2)) […] assessed as dissociation constant after 180 secs by biolayer interferometry analysis.
Assay [4] has the same test system. Description: Binding affinity to Influenza A virus (A/Hong Kong/1/1968(H3N2)) […] assessed as association constant after 180 secs by biolayer interferometry analysis.
For assay [5], the system named is Influenza A virus (A/Puerto Rico/8/1934(H1N1)). Description: Binding affinity to Influenza A virus (A/Puerto Rico/8/1934(H1N1)) PR8 hemagglutinin-1 assessed as dissociation constant after 180 secs by biolayer interferometry analysis.
For assay [6] the test system is unchanged. As to the kind of experiment: Binding affinity to Influenza A virus (A/Puerto Rico/8/1934(H1N1)) PR8 hemagglutinin-1 assessed as association constant after 180 secs by biolayer interferometry analysis.
For assay [7] the test system is unchanged. Description: Potency index, ratio of Kd for Arbidol to Kd for test compound for binding affinity to Influenza A virus (A/Puerto Rico/8/1934(H1N1)) PR8 hemagglutinin-1 by biolayer interferometry analysis.
The subject of assay [8] is Influenza A virus (A/Hong Kong/1/1968(H3N2)). As to the kind of experiment: Potency index, ratio of Kd for Arbidol to Kd for test compound for binding affinity to Influenza A virus (A/Hong Kong/1/1968(H3N2)) […] by biolayer interferometry analysis.

On to `CCOC(=O)c1c(CSc2ccc3ccccc3c2)n(C)c2cc(Br)c(O)cc12`, for which the values for the dissociation constant Kd in assay [1] (read-out: Kd) and in assay [2] (read-out: Kd) were 45 µM and 18 µM, respectively.

For `CCOC(=O)c1c(CSc2cccc(N)c2)n(C)c2cc(Br)c(O)cc12`, the Kd in assay [1] (read-out: Kd) is more than 100 µM; in assay [2], “Not Active”.

Turning to `CCOC(=O)c1c(CSc2ccc3ccccc3c2)n(C)c2cc(Br)c(O)c(CN(C)C)c12`, the Kd entry in assay [1] and in assay [2] was “Not Active” in each case.

Consider `CCOC(=O)c1c(CSc2cccc(N)c2)n(C)c2cc(Br)c(O)c(CN(C)C)c12`, for which the dissociation constant (Kd) was 7.4 µM in assay [1] (read-out: Kd) and “Not Active” in assay [2].

For `CCOC(=O)c1c(CSc2ccccc2)n(C)c2cc(Br)c(O)cc12`, the dissociation constant Kd in assay [1] (read-out: Kd) is 11 µM; in assay [2] (read-out: Kd) it was 38 µM.

For `CCOC(=O)c1c(CSc2ccccc2)n(C)c2cc(Br)c(O)c(CN3CCN(C(=O)OC(C)(C)C)CC3)c12`, the Kd entry in assay [1] is “Not Active”; in assay [2] (read-out: Kd), 41 µM.

For `CCOC(=O)c1c(CSc2ccccc2)n(C)c2cc(Br)c(O)c(CN3CCN(CCO)CC3)c12`, the Kd in assay [1] (read-out: Kd) was 46 µM; in assay [2], “Not Active”.

In the case of `CCOC(=O)c1c(CSc2ccccc2)n(C)c2cc(Br)c(O)c(CN(C)C)c12` [UMIFENOVIR], the K in assay [3] came to 2.8 ×10⁻² /s; in assay [4], 2.3 ×10² /M/s; in assay [5], 4.8 ×10⁻² /s; in assay [6], 1 ×10³ /M/s. Further, the Kd in assay [1] (read-out: Kd) is 92 µM; in assay [2] (read-out: Kd), 47 µM.

As to `CCOC(=O)c1c(CSc2cccc(O)c2)n(C)c2cc(Br)c(O)c(CN(C)C)c12`, the K stood at 1.93 ×10⁻² /s in assay [3], 2.41 ×10⁵ /M/s in assay [4], 3.42 ×10⁻² /s in assay [5] and 7.06 ×10⁴ /M/s in assay [6]. For the same compound, in assay [2] (read-out: Kd), the Kd lay within 0.48 to 0.55 µM. For the same compound, the Ratio in assay [7] worked out at 98; in assay [8], 1150.

For `CCOC(=O)c1c(CSc2cccc(O)c2)n(C)c2cc(Br)c(O)cc12`, the figures for the Kd in assay [1] (read-out: Kd) and in assay [2] (read-out: Kd) were 17 µM and 75 µM, respectively.

The term Kd denotes a measure of binding affinity in units of concentration.
